{
  "source": "patent US9345703B2",
  "about": "“Kappa opioid receptor effectors and uses thereof” (University of Kansas, priority 2011, dated 2016)",
  "key": {"DOR": {"molecular_target": "DOR (Homo sapiens, UniProt P41143)", "sequence (P41143 whole entry)": "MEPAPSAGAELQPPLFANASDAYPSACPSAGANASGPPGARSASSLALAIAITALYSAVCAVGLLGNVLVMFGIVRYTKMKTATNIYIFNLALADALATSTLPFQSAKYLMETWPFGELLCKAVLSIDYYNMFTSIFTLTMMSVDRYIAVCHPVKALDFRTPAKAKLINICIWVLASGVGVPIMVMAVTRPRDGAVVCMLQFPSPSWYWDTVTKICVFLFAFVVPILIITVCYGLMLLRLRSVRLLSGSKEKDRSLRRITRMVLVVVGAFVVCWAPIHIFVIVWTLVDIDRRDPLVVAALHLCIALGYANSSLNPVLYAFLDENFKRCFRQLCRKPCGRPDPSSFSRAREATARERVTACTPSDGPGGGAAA", "assay": "High content imaging β-arrestin translocation assay, DOR antagonist (DOR HCS)", "assay_type": "cell-based", "excerpt": "(§1) In this campaign, two assay platforms were employed to evaluate KOR activity and selectivity: the KOR1 DISCOVERX β-Arrestin […] assay and an imaging based β-arrestin translocation assay for confirmatory and selectivity assays. The KOR1 DISCOVERX β-Arrestin […] assay is a commercial platform for direct measurement of GPCR (G protein-coupled receptor) activation by detection of β-Arrestin binding to the KOR. […] In cells that stably express these fusion proteins, ligand stimulation results in the recruitment of β-Arrestin by the GPCR. This interaction encourages the complementation of the two β-galactosidase fragments resulting in the formation of a functional enzyme that converts substrate in the assay medium to a detectable signal. The imaging based high-content β-arrestin translocation assay is based upon the redistribution of β-Arrestin linked to green fluorescent protein (GFP) to the cell surface and detection (Barak, et al. (1997) J. Biol. Chem. 272:27497-27500).\n(§2) Initially, a portion (approximately 290,000 compounds) of the MLSMR compound collection was tested in the KOR1 DISCOVERX β-arrestin primary kappa opioid (KOP) agonist and antagonist screens (PUBCHEM AID 1777 and 1778, respectively) at a single concentration point (10 μM). […] These compounds were concurrently tested in a β-galactosidase counterscreen assay (PUBCHEM AID 1966) to assess the possibility that these compounds might inhibit the reporting enzyme. […] The KOR:DOR:MOR selectivity of the compounds was determined using the analogous β-arrestin translocation assays for the DOR (PUBCHEM AID 2370 and 2357, for agonists and antagonist, respectively) and the MOR (PUBCHEM AID 2352 and 2420, for agonists and antagonists, respectively)."}, "KOP receptor [1]": {"molecular_target": "T1, KOP receptor (Homo sapiens, UniProt P41145)", "T1 sequence (P41145 whole entry)": "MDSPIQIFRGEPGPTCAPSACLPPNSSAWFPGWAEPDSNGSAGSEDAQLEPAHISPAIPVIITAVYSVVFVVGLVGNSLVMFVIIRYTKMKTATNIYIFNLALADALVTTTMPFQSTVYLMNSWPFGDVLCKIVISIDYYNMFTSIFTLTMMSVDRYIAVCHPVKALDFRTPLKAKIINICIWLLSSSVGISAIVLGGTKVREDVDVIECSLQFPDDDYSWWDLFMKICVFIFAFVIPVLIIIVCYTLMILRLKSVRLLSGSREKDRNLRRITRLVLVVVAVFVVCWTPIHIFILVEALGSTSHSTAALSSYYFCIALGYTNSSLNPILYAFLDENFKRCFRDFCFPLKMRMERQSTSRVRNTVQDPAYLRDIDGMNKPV", "assay": "35S-GTPγS coupling, inhibition", "assay_type": "biochemical"}, "KOR [2]": {"molecular_target": "T2, KOR (Homo sapiens, UniProt P41145)", "T2 sequence (P41145 whole entry)": "as above", "assay": "KOR1 DISCOVERX β-Arrestin […] assay, antagonist mode (KOR DRX)", "assay_type": "cell-based", "conditions": "antagonist; average; read-out: Potency, Target KOR DRX", "excerpt": "as §1, §2"}, "MOR": {"molecular_target": "MOR (Homo sapiens, UniProt P35372)", "sequence (P35372 whole entry)": "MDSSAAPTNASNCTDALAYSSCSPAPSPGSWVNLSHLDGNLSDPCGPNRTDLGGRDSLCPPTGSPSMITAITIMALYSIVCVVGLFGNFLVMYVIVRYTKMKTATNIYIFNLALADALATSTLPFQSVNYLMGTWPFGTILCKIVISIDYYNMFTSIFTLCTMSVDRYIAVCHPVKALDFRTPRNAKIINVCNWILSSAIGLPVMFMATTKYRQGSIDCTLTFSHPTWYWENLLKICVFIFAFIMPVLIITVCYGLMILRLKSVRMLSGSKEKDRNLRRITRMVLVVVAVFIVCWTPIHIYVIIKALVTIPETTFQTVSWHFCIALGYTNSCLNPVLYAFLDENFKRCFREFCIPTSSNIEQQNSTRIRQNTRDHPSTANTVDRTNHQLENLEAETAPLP", "assay": "High content imaging β-arrestin translocation assay, MOR antagonist (MOR HCS)", "assay_type": "cell-based", "excerpt": "as §1, §2"}, "KOP receptor [3]": {"molecular_target": "T1, KOP receptor", "assay": "ERK 1/2 activation, inhibition", "assay_type": "cell-based"}, "KOR [4]": {"molecular_target": "T2, KOR", "assay": "High content imaging β-arrestin translocation assay, KOR antagonist (KOR HCS)", "assay_type": "cell-based", "conditions": "antagonist; average; read-out: Potency, Target KOR HCS", "excerpt": "as §1, §2"}},
  "note": "Marks after values point to notes of the source that are not given here.",
  "data": [
    {"smiles": "COc1ccc(N2CCN(CCCNC(=O)Cn3c(=O)c4cccn4c4ccccc43)CC2)cc1", "note": "[Compound 1{1}]", "values": [
      {"measurement": "IC50", "setting": "DOR", "result": "> 32000", "unit": "nM"},
      {"measurement": "Imax (% NBNI)", "setting": "KOP receptor [1]", "result": "122 ± 5^a % NBNI"},
      {"measurement": "IC50", "setting": "KOP receptor [1]; n ≧ 3 curves in duplicate", "result": "95.7 ± 48", "unit": "nM"},
      {"measurement": "IC50", "setting": "KOR [2]", "result": 1970, "unit": "nM"},
      {"measurement": "IC50", "setting": "MOR", "result": "> 32000", "unit": "nM"},
      {"measurement": "Imax (% NBNI)", "setting": "KOP receptor [3]", "result": "101 ± 3^ % NBNI"},
      {"measurement": "IC50", "setting": "KOP receptor [3]; n ≧ 3 curves, replicates of 6", "result": "65 ± 9.2", "unit": "nM"},
      {"measurement": "IC50", "setting": "KOR [4]", "result": 1310, "unit": "nM"}
    ]}
  ]
}
